Measured values as given in patent US20150105252A1, “SUBSTITUTED PYRAZOLES AS HERBICIDES” (E I DU PONT DE NEMOURS AND COMPANY, priority 2013, published 2015).

Assays:
[1] = system: corn; test: Test F preemergence; type: in vivo, Zea mays
In short: (§1)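 Visual injury was scored from 0 (none) to 100 (complete control) relative to untreated controls after 14–21 days in a greenhouse. Before that, formulated compound (solvent plus surfactant) was sprayed either on silt-loam soil right after sowing or on emerged plants at the 1–4-leaf stage, 2–18 cm tall.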

[2] = system: kochia; test: Test D preemergence; type: in vivo, Kochia scoparia; conditions: scale 0 to 100
Text: (§2) Seeds of plant species selected from bluegrass (annual bluegrass, Poa annua), blackgrass (Alopecurus myosuroides), canarygrass (littleseed canarygrass, Phalaris minor), chickweed (common chickweed, Stellaria media), galium (catchweed bedstraw, Galium aparine), bromegrass, downy (downy bromegrass, Bromus tectorum), field poppy (Papaver rhoeas), field violet (Viola arvensis), foxtail, green (green foxtail, Setaria viridis), deadnettle (henbit deadnettle, Lamium amplexicaule), ryegrass, Italian (Italian ryegrass, Lolium multiflorum), kochia (Kochia scoparia), lambsquarters (Chenopodium album), oilseed rape (Brassica napus), pigweed (redroot pigweed, Amaranthus retroflexus), chamomile (scentless chamomile, Matricaria inodora), speedwell (bird's-eye speedwell, Veronica persica), barley, spring (spring barley, Hordeum vulgare), wheat, spring (spring wheat, Triticum aestivum), buckwheat, wild (wild buckwheat, Polygonum convolvulus), mustard, wild (wild mustard, Sinapis arvensis), oat, wild (wild oat, Avena fatua), radish, wild (wild radish, Raphanus raphanistrum), windgrass (Apera spica-venti), Russian thistle (Salsola kali), barley, winter (winter barley, Hordeum vulgare), and wheat, winter (winter wheat, Triticum aestivum) were planted into a silt loam soil and treated preemergence with test chemicals formulated in a non-phytotoxic solvent mixture which included a surfactant.
(§3) At the same time, these species were planted in pots containing Redi-Earth® planting medium (Scotts Company, 14111 Scottslawn Road, Marysville, Ohio 43041) comprising spaghnum peat moss, vermiculite, wetting agent and starter nutrients and treated with postemergence applications of the test chemicals formulated in the same manner. Plants ranged in height from 2 to 18 cm (1- to 4-leaf stage). Treated plants and controls were maintained in a controlled growth environment for 14 to 21 days after which time all species were compared to controls and visually evaluated. Plant response ratings, summarized in Table D, are based on a scale of 0 to 100 where 0 is no effect and 100 is complete control. A dash (-) response means no test result.

[3] = system: deadnettle; test: Test D preemergence; type: in vivo, Lamium amplexicaule; conditions: scale 0 to 100
In short: (§4)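 Pre: sown in silt loam, sprayed at once. Post: grown in peat-moss/vermiculite mix, sprayed at 1–4 leaves (2–18 cm). Formulation: non-phytotoxic solvent + surfactant. Read-out: visual 0–100 vs controls, 14–21 d.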

[4] = system: mustard, wild; test: Test D preemergence; type: in vivo, Sinapis arvensis; conditions: scale 0 to 100
In short: as §4

[5] = system: lambsquarters; test: Test F preemergence; type: in vivo, Chenopodium album
Text: (§5) Seeds of plant species selected from corn (Zea mays), soybean (Glycine max), velvetleaf (Abutilon theophrasti), lambsquarters (Chenopodium album), wild poinsettia (Euphorbia heterophylla), pigweed, palmer (palmer pigweed, Amaranthus palmeri), common waterhemp (Amaranthus rudis), surinam grass (Brachiaria decumbens), large crabgrass (Digitaria sanguinalis), crabgrass, Brazil (Brazilian crabgrass, Digitaria horizontalis), fall panicum (Panicum dichotomiflorum), giant foxtail (Setaria faberii), green foxtail (Setaria viridis), goosegrass (Eleusine indica), johnsongrass (Sorghum halepense), common ragweed (Ambrosia elation), barnyardgrass (Echinochloa crus-galli), southern sandbur (Cenchrus echinatus), arrowleaf sida (Sida rhombifolia), Italian ryegrass (Lolium multiflorum), dayflower, VA (Virginia (VA) dayflower, Commelina virginica), field bindweed (Convolvulus arvensis), cocklebur (common cocklebur, Xanthium strumarium), morningglory (Ipomoea coccinea), nightshade (eastern black nightshade, Solanum ptycanthum), kochia (Kochia scoparia), yellow nutsedge (Cyperus esculentus), and hairy beggarticks (Bidens pilosa), were planted into a silt loam soil and treated preemergence with test chemicals formulated in a non-phytotoxic solvent mixture which included a surfactant.
(§6) At the same time, plants from these crop and weed species and also horseweed (Canada horseweed, Conyza canadensis), smartweed (ladysthumb smartweed, Polygonum persicaria), waterhemp_RES1, (ALS & Triazine resistant common waterhemp, Amaranthus rudis), and waterhemp_RES2, (ALS & HPPD resistant common waterhemp, Amaranthus rudis) were treated with postemergence applications of test chemicals formulated in the same manner. Plants ranged in height from 2 to 18 cm for postemergence treatments (1- to 4-leaf stage). Treated plants and controls were maintained in a greenhouse for 14 to 21 days, after which time all species were compared to controls and visually evaluated. Plant response ratings, summarized in Table F, are based on a scale of 0 to 100 where 0 is no effect and 100 is complete control. A dash (-) response means no test result.

[6] = system: radish, wild; test: Test D postemergence; type: in vivo, Raphanus raphanistrum; conditions: scale 0 to 100
Text: as §2, §3

[7] = system: bluegrass; test: Test D postemergence; type: in vivo, Poa annua; conditions: scale 0 to 100
Text: as §2, §3

[8] = system: bromegrass, downy; test: Test D postemergence; type: in vivo, Bromus tectorum; conditions: scale 0 to 100
In short: as §4

[9] = system: pigweed, palmer; test: Test F preemergence; type: in vivo, Amaranthus palmeri
In short: as §1

[10] = system: field poppy; test: Test D postemergence; type: in vivo, Papaver rhoeas; conditions: scale 0 to 100
Text: as §2, §3

[11] = system: common waterhemp; test: Test F preemergence; type: in vivo, Amaranthus rudis
Text: as §5, §6

[12] = system: ryegrass, Italian; test: Test D postemergence; type: in vivo, Lolium multiflorum; conditions: scale 0 to 100
Text: as §2, §3

[13] = system: oilseed rape; test: Test D preemergence; type: in vivo, Brassica napus; conditions: scale 0 to 100
In short: as §4

[14] = system: chickweed; test: Test D postemergence; type: in vivo, Stellaria media; conditions: scale 0 to 100
Text: as §2, §3

[15] = Preemergence, 31 g ai/ha, scale 0 to 100
[16] = Preemergence, 62 g ai/ha, scale 0 to 100
[17] = Preemergence, 125 g ai/ha, scale 0 to 100
[18] = preemergence, 8 g ai/ha, scale 0 to 100, 100 is complete control
[19] = preemergence, 16 g ai/ha, scale 0 to 100, 100 is complete control

## CCCc1cc(C(=O)NCC(F)(F)F)nn1Cc1ccnc(C(F)(F)F)c1 [Compound 105]
[1]; [15]
  Plant response rating, Corn: 40
[1]; [16]
  Plant response rating, Corn: 40
[1]; [17]
  Plant response rating, Corn: 60
[1]; [18]
  Plant response rating, Corn: 20
[1]; [19]
  Plant response rating, Corn: 30
[2]; 31 g ai/ha
  Plant response rating, Kochia: 95
[2]; 62 g ai/ha
  Plant response rating, Kochia: 100
[2]; 125 g ai/ha
  Plant response rating, Kochia: 100
[2]; 250 g ai/ha
  Plant response rating, Kochia: 100
[3]; 31 g ai/ha
  Plant response rating, Deadnettle: 5
[3]; 125 g ai/ha
  Plant response rating, Deadnettle: 20
[3]; 250 g ai/ha
  Plant response rating, Deadnettle: 35
[4]; 31 g ai/ha
  Plant response rating, Mustard, Wild: 100
[4]; 62 g ai/ha
  Plant response rating, Mustard, Wild: 100
[4]; 125 g ai/ha
  Plant response rating, Mustard, Wild: 100
[4]; 250 g ai/ha
  Plant response rating, Mustard, Wild: 100
[5]; [15]
  Plant response rating, Lambsquarters: 100
[5]; [16]
  Plant response rating, Lambsquarters: 100
[5]; [17]
  Plant response rating, Lambsquarters: 100
[5]; [18]
  Plant response rating, Lambsquarters: 35
[5]; [19]
  Plant response rating, Lambsquarters: 35
[6]; Postemergence, 31 g ai/ha
  Radish, Wild plant response rating: 35
[6]; Postemergence, 125 g ai/ha
  Radish, Wild plant response rating: 70
[6]; Postemergence, 250 g ai/ha
  Radish, Wild plant response rating: 80
[6]; postemergence, 62 g ai/ha
  Radish, Wild plant response rating: 55
[7]; Postemergence, 31 g ai/ha
  Bluegrass plant response rating: 15
[7]; Postemergence, 125 g ai/ha
  Bluegrass plant response rating: 40
[7]; Postemergence, 250 g ai/ha
  Bluegrass plant response rating: 70
[7]; postemergence, 62 g ai/ha
  Bluegrass plant response rating: 15
[8]; Postemergence, 31 g ai/ha
  Bromegrass, Downy plant response rating: 10
[8]; Postemergence, 125 g ai/ha
  Bromegrass, Downy plant response rating: 20
[8]; Postemergence, 250 g ai/ha
  Bromegrass, Downy plant response rating: 30
[8]; postemergence, 62 g ai/ha
  Bromegrass, Downy plant response rating: 15
[9]; [16]
  Plant response rating, Pigweed, Palmer: 50
[9]; [17]
  Plant response rating, Pigweed, Palmer: 80
[9]; [18]
  Plant response rating, Pigweed, Palmer: 0
[9]; [19]
  Plant response rating, Pigweed, Palmer: 0
[10]; Postemergence, 31 g ai/ha
  Field Poppy plant response rating: 65
[10]; Postemergence, 125 g ai/ha
  Field Poppy plant response rating: 80
[10]; Postemergence, 250 g ai/ha
  Field Poppy plant response rating: 95
[10]; postemergence, 62 g ai/ha
  Field Poppy plant response rating: 80
[11]; [15]
  Plant response rating, Common Waterhemp: 100
[11]; [16]
  Plant response rating, Common Waterhemp: 100
[11]; [17]
  Plant response rating, Common Waterhemp: 100
[11]; [18]
  Plant response rating, Common Waterhemp: 75
[11]; [19]
  Plant response rating, Common Waterhemp: 100
[12]; Postemergence, 31 g ai/ha
  Ryegrass, Italian plant response rating: 5
[12]; Postemergence, 125 g ai/ha
  Ryegrass, Italian plant response rating: 40
[12]; Postemergence, 250 g ai/ha
  Ryegrass, Italian plant response rating: 65
[12]; postemergence, 62 g ai/ha
  Ryegrass, Italian plant response rating: 5
[13]; 31 g ai/ha
  Plant response rating, Oilseed Rape: 0
[13]; 62 g ai/ha
  Plant response rating, Oilseed Rape: 10
[13]; 125 g ai/ha
  Plant response rating, Oilseed Rape: 70
[13]; 250 g ai/ha
  Plant response rating, Oilseed Rape: 95
[14]; Postemergence, 31 g ai/ha
  Chickweed plant response rating: 20
[14]; Postemergence, 125 g ai/ha
  Chickweed plant response rating: 70
[14]; Postemergence, 250 g ai/ha
  Chickweed plant response rating: 80
[14]; postemergence, 62 g ai/ha
  Chickweed plant response rating: 55
